In ChEMBL document CHEMBL4376861, “Docking Finds GPCR Ligands in Dark Chemical Matter” (J Med Chem, 2020):

How the values were obtained:
Adenosine receptor A1 = target: T1, Adenosine receptor A1 (Homo sapiens, UniProt P30542); test: Displacement of [3H]DPCPX from human adenosine […] receptor expressed in […] cell membranes incubated for 60 mins by scintillation counting method
T1 sequence (P30542 whole entry): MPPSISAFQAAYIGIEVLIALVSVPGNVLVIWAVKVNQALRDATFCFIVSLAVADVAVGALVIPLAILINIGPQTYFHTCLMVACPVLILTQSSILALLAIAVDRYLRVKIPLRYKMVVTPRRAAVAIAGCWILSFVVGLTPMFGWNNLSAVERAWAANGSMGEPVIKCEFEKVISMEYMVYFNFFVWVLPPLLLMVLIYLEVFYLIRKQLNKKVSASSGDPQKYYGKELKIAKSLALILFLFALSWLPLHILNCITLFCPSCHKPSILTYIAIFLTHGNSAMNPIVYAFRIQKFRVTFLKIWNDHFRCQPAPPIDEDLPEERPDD

[1] = target: T2, D(4) dopamine receptor (Homo sapiens) (UniProt P21917); test: Displacement of [3H]spiperone from human dopamine D4 receptor expressed in cell membranes at 10 uM incubated for 60 mins by scintillation counting method relative to control
T2 sequence (whole entry): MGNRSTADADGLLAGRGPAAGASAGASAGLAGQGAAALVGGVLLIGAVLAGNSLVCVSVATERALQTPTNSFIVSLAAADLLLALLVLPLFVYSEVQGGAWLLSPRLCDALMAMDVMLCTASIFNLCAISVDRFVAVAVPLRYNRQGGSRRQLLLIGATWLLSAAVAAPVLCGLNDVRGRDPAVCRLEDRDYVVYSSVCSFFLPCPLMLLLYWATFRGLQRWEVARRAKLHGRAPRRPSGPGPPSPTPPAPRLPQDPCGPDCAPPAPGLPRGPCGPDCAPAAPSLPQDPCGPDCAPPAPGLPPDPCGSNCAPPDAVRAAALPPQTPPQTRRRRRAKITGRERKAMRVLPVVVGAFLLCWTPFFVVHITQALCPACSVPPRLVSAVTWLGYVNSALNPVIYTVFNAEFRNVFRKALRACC

Adenosine receptor A2a [2] = target: T3, Adenosine receptor A2a (Homo sapiens, UniProt P29274); test: Displacement of [3H]ZM241385 from adenosine A2A receptor in human HeLa cell membranes incubated for 30 mins by scintillation counting method
D(3) dopamine receptor [3] = target: T4, D(3) dopamine receptor (Homo sapiens, UniProt P35462); test: Displacement of [3H]spiperone from human dopamine D3 receptor expressed in cell membranes at 10 uM incubated for 60 mins by scintillation counting method
[4] = target: T5, Adenosine receptor A1 (Homo sapiens) (UniProt P30542); test: Displacement of [3H]DPCPX from human adenosine […] receptor expressed in […] cell membranes at 10 uM incubated for 60 mins by scintillation counting method relative to control
T5 sequence (whole entry): T1 sequence (P30542 whole entry)

D(3) dopamine receptor [5] = target: T4, D(3) dopamine receptor; test: Displacement of [3H]spiperone from human dopamine D3 receptor expressed in cell membranes incubated for 60 mins by scintillation counting method
Adenosine receptor A2a [6] = target: T3, Adenosine receptor A2a; test: Displacement of [3H]ZM241385 from adenosine A2A receptor in human HeLa cell membranes at 10 uM incubated for 30 mins by scintillation counting method relative to control
D(4) dopamine receptor = target: T6, D(4) dopamine receptor (Homo sapiens, UniProt P21917); test: Displacement of [3H]spiperone from human dopamine D4 receptor expressed in cell membranes incubated for 60 mins by scintillation counting method
T6 sequence (P21917 whole entry): T2 sequence (whole entry)

T3 sequence (P29274 whole entry): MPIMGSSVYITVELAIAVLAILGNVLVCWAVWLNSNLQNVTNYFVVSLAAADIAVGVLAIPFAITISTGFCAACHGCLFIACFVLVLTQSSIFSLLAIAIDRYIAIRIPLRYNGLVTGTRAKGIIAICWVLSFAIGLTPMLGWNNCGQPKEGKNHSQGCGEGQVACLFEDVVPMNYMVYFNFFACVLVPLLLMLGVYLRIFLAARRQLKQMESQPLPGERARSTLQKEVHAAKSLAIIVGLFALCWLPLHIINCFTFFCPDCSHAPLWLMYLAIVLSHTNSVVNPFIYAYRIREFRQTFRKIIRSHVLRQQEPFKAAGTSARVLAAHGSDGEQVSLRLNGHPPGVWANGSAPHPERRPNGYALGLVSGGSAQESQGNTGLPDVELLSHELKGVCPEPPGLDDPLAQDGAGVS
T4 sequence (P35462 whole entry): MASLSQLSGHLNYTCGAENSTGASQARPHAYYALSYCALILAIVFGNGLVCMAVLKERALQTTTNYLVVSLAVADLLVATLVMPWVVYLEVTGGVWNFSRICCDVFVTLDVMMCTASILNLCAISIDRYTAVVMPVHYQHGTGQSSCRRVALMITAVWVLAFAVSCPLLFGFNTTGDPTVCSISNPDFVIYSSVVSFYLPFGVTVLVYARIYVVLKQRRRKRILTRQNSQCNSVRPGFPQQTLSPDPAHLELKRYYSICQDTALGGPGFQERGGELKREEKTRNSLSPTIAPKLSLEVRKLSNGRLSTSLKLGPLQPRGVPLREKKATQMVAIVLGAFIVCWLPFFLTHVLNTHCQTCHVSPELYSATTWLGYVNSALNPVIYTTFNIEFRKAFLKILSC

Structure (SMILES)	Ki (Adenosine receptor A1)	inhibition [1]	Ki (Adenosine receptor A2a [2])	inhibition (D(3) dopamine receptor [3])	inhibition [4]	Ki (D(3) dopamine receptor [5])	inhibition (Adenosine receptor A2a [6])	Ki (D(4) dopamine receptor)
Nc1nc(-c2ccccc2)nn1C(=O)c1ccco1	36 nM	7%	130 nM	4%	–	–	–	–
CCOC(=O)c1nc(N)c(=O)n(-c2ccccc2)n1	2200 nM	12%	4900 nM	6%	–	–	–	–
Cc1ccc(C(=O)C2CCN(CC(=O)NC3CCCC3)CC2)cc1	–	–	–	–	19%	11000 nM	7%	420 nM
Cc1cccc2cc(CNCc3ccccc3)c(Cl)nc12	–	–	–	–	13%	1600 nM	13%	550 nM
